Measurements: patent publication US10131652B2, “Pyrimidinyloxy benzene derivatives as herbicides” (E. I. DU PONT DE NEMOURS AND COMPANY, priority 2014, dated 2018)

Experiments:
Type in all cases: in vivo
[1] = tested on: Italian ryegrass (Lolium multiflorum); experiment: Test B pre-/postemergence plant response
Procedure, shortened: (§1)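 Visual injury rating, 0 (no effect) to 100 (complete control), vs untreated controls after ~10 d greenhouse. Pre: directed soil spray after planting in loam/sand. Post: plants 2–10 cm, 1–2 leaf stage. Compound in non-phytotoxic solvent plus surfactant.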

kochia (Kochia scoparia) = experiment: Test B pre-/postemergence plant response
Procedure, shortened: as §1

[2] = tested on: ragweed (common ragweed, Ambrosia elatior); experiment: Test B pre-/postemergence plant response
Procedure, shortened: as §1

[3] = tested on: blackgrass (Alopecurus myosuroides); experiment: Test B postemergence plant response
Procedure, shortened: (§2)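 Plants grown in pots of loam soil–sand blend were sprayed postemergence with formulated test chemicals at 2 to 10 cm height, one- to two-leaf stage. After about 10 days in a greenhouse, injury was visually rated against untreated controls on a 0 to 100 scale (0 no effect, 100 complete control).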

[4] = tested on: galium (catchweed bedstraw, Galium aparine); experiment: Test B postemergence plant response
Procedure, shortened: as §2

[5] = tested on: Brazilian crabgrass (Digitaria horizontalis); experiment: Test F pre-/postemergence plant response; details: scale 0 to 100
Source text: (§3) Seeds of plant species selected from corn (Zea mays), soybean (Glycine max), velvetleaf (Abutilon theophrasti), lambsquarters (Chenopodium album), wild poinsettia (Euphorbia heterophylla), palmer pigweed (Amaranthus palmeri), waterhemp (common waterhemp, Amaranthus rudis), surinam grass (Brachiaria decumbens), large (Lg) crabgrass (Digitaria sanguinalis), Brazilian crabgrass (Digitaria horizontalis), fall panicum (Panicum dichotomiflorum), giant foxtail (Setaria faberii), green foxtail (Setaria viridis), goosegrass (Eleusine indica), johnsongrass (Sorghum halepense), ragweed (common ragweed, Ambrosia elatior), barnyardgrass (Echinochloa crus-galli), sandbur (southern sandbur, Cenchrus echinatus), arrowleaf sida (Sida rhombifolia), Italian ryegrass (Lolium multiflorum), dayflower (Virginia (VA) dayflower, Commelina virginica), field bindweed (Convolvulus arvensis), cocklebur (common cocklebur, Xanthium strumarium), momingglory (Ipomoea coccinea), nightshade (eastern black nightshade, Solanum ptycanthum), kochia (Kochia scoparia), yellow nutsedge (Cyperus esculentus), and hairy beggarticks (Bidens pilosa), were planted into a silt loam soil and treated preemergence with test chemicals formulated in a non-phytotoxic solvent mixture which included a surfactant.
(§4) At the same time, plants from these crop and weed species and also waterhemp_RES1, (ALS & Triazine resistant common waterhemp, Amaranthus rudis), and waterhemp_RES2, (ALS & HPPD resistant common waterhemp, Amaranthus rudis) were treated with postemergence applications of test chemicals formulated in the same manner. Plants ranged in height from 2 to 18 cm for postemergence treatments (1- to 4-leaf stage).
(§5) Treated plants and controls were maintained in a greenhouse for 14 to 21 days, after which time all species were compared to controls and visually evaluated. Plant response ratings, summarized in Table F, are based on a scale of 0 to 100 where 0 is no effect and 100 is complete control. A dash (-) response means no test result.

[6] = tested on: wild poinsettia (Euphorbia heterophylla); experiment: Test F pre-/postemergence plant response; details: scale 0 to 100
Source text: as §3, §4, §5

[7] = tested on: waterhemp_RES1 (ALS & Triazine resistant common waterhemp, Amaranthus rudis); experiment: Test F postemergence plant response; details: scale 0 to 100
Procedure: as §4, §5

[8] = tested on: waterhemp_RES2 (ALS & HPPD resistant common waterhemp, Amaranthus rudis); experiment: Test F postemergence plant response; details: scale 0 to 100
Procedure: as §4, §5

[9] = 125 g ai/ha, postemergence, 0 to 100 scale, 0 no effect, 100 complete control
[10] = Postemergence, 500 g ai/ha, 0 to 100 scale (0 no effect, 100 complete control)
[11] = Preemergence, 125 g ai/ha, 0 to 100 scale (0 no effect, 100 complete control)
[12] = Preemergence, 500 g ai/ha, 0 to 100 scale where 0 is no effect and 100 is complete control
[13] = 31 g ai/ha, Preemergence, 0 to 100 scale where 0 is no effect and 100 is complete control
[14] = Postemergence, 31 g ai/ha, 0 to 100 scale (0 no effect, 100 complete control)

| SMILES | Plant response rating, Ryegrass, Italian [1, 9] | Plant response rating, Ryegrass, Italian [1, 10] | Ryegrass, Italian plant response rating [1, 11] | Plant response rating, Ryegrass, Italian [1, 12] | Plant response rating, Kochia (kochia (Kochia scoparia); [9]) | Plant response rating, Kochia (kochia (Kochia scoparia); [10]) | Kochia plant response rating (kochia (Kochia scoparia); [11]) | Plant response rating, Kochia (kochia (Kochia scoparia); [12]) | Plant response rating, Ragweed [2, 9] | Plant response rating, Ragweed [2, 10] | Ragweed plant response rating [2, 11] | Plant response rating, Ragweed [2, 12] | Plant response rating, Blackgrass [3, 9] | Plant response rating, Blackgrass [3, 10] | Plant response rating, Galium [4, 9] | Plant response rating, Galium [4, 10] | Plant response rating, Crabgrass, Brazil ([5]; 16 g ai/ha Postemergence) | Plant response rating, Crabgrass, Brazil ([5]; 31 g ai/ha Postemergence) | Plant response rating, Crabgrass, Brazil ([5]; 62 g ai/ha Postemergence) | Plant response rating, Crabgrass, Brazil ([5]; 125 g ai/ha Postemergence) | further results |
| --- | --- | --- | --- | --- | --- | --- | --- | --- | --- | --- | --- | --- | --- | --- | --- | --- | --- | --- | --- | --- | --- |
| FC(F)c1cc(-c2c(Cl)cccc2Oc2ncc(Cl)cn2)no1 [Compound 179] | 90 | 100 | 20 | 40 | 90 | 100 | 100 | 100 | 10 | 30 | 10 | 40 | 80 | 100 | 100 | 100 | 10 | 20 | 20 | 30 | Plant response rating, Crabgrass, Brazil ([5]; 16 g ai/ha Preemergence): 0; Plant response rating, Crabgrass, Brazil ([5]; 31 g ai/ha Preemergence): 0; Plant response rating, Crabgrass, Brazil ([5]; 62 g ai/ha Preemergence): 15; Plant response rating, Crabgrass, Brazil ([5]; 125 g ai/ha Preemergence): 25; Plant response rating, Poinsettia, Wild ([6]; 16 g ai/ha Postemergence): 15; Plant response rating, Poinsettia, Wild ([6]; 16 g ai/ha Preemergence): 0; Plant response rating, Poinsettia, Wild ([6]; 31 g ai/ha Postemergence): 15; Plant response rating, Poinsettia, Wild ([6]; 31 g ai/ha Preemergence): 0; Plant response rating, Poinsettia, Wild ([6]; 62 g ai/ha Postemergence): 20; Plant response rating, Poinsettia, Wild ([6]; 125 g ai/ha Postemergence): 35; Plant response rating, Poinsettia, Wild ([6]; 125 g ai/ha Preemergence): 0; Plant response rating, Poinsettia, Wild ([6]; Preemergence): 0; Plant response rating, Waterhemp_RES1 ([7]; 16 g ai/ha Postemergence): 90; Plant response rating, Waterhemp_RES1 ([7]; 31 g ai/ha Postemergence): 90; Plant response rating, Waterhemp_RES1 ([7]; 62 g ai/ha Postemergence): 100; Plant response rating, Waterhemp_RES1 ([7]; 125 g ai/ha Postemergence): 100; Plant response rating, Waterhemp_RES2 ([8]; 16 g ai/ha Postemergence): 95; Plant response rating, Waterhemp_RES2 ([8]; 31 g ai/ha Postemergence): 100; Plant response rating, Waterhemp_RES2 ([8]; 62 g ai/ha Postemergence): 100; Plant response rating, Waterhemp_RES2 ([8]; 125 g ai/ha Postemergence): 100 |
| Fc1ccc(Oc2ncc(Cl)cn2)c(-c2cc(C(F)(Cl)Cl)on2)c1 [Compound 221] | 40 | – | 40 | – | 100 | – | 70 | – | 50 | – | 0 | – | 60 | – | 100 | – | 20 | 25 | 45 | 75 | Plant response rating, Ryegrass, Italian [1, 13]: 20; Plant response rating, Ryegrass, Italian [1, 14]: 0; Plant response rating, Kochia (kochia (Kochia scoparia); [13]): 50; Plant response rating, Kochia (kochia (Kochia scoparia); [14]): 80; Plant response rating, Ragweed [2, 13]: 0; Plant response rating, Ragweed [2, 14]: 10; Plant response rating, Blackgrass [3, 14]: 30; Plant response rating, Galium [4, 14]: 90; Plant response rating, Poinsettia, Wild ([6]; 16 g ai/ha Postemergence): 65; Plant response rating, Poinsettia, Wild ([6]; 31 g ai/ha Postemergence): 75; Plant response rating, Poinsettia, Wild ([6]; 62 g ai/ha Postemergence): 70; Plant response rating, Poinsettia, Wild ([6]; 125 g ai/ha Postemergence): 80; Plant response rating, Waterhemp_RES1 ([7]; 16 g ai/ha Postemergence): 85; Plant response rating, Waterhemp_RES1 ([7]; 31 g ai/ha Postemergence): 95; Plant response rating, Waterhemp_RES1 ([7]; 62 g ai/ha Postemergence): 100; Plant response rating, Waterhemp_RES1 ([7]; 125 g ai/ha Postemergence): 98; Plant response rating, Waterhemp_RES2 ([8]; 16 g ai/ha Postemergence): 90; Plant response rating, Waterhemp_RES2 ([8]; 31 g ai/ha Postemergence): 98; Plant response rating, Waterhemp_RES2 ([8]; 62 g ai/ha Postemergence): 95; Plant response rating, Waterhemp_RES2 ([8]; 125 g ai/ha Postemergence): 100 |
| Fc1cccc(Oc2ncc(Cl)cn2)c1-c1cc(C(F)(F)F)on1 [Compound 168, 5-chloro-2-[2-[5-(trifluoromethyl)-3-isoxazolyl]-3-fluorophenoxy]pyrimidine] | 90 | 90 | 80 | 100 | 90 | 90 | 100 | 100 | 90 | 90 | 70 | 80 | 90 | 90 | 100 | 100 | – | – | – | – | pest or weed control at 16 g/ha ([5]; Digitaria horizontalis, pre-emergence, 16 g ai/ha Preemergence, read-out: Plant response rating, Crabgrass, Brazil): 65%; pest or weed control at 31 g/ha ([5]; Digitaria horizontalis, pre-emergence, 31 g ai/ha Preemergence, read-out: Plant response rating, Crabgrass, Brazil): 100%; pest or weed control at 62 g/ha ([5]; Digitaria horizontalis, pre-emergence, 62 g ai/ha Preemergence, read-out: Plant response rating, Crabgrass, Brazil): 100%; pest or weed control at 125 g/ha ([5]; Digitaria horizontalis, pre-emergence, 125 g ai/ha Preemergence, read-out: Plant response rating, Crabgrass, Brazil): 100%; pest or weed control at 16 g/ha ([6]; Euphorbia heterophylla, pre-emergence, 16 g ai/ha Preemergence, read-out: Plant response rating, Poinsettia, Wild): 0%; pest or weed control at 31 g/ha ([6]; Euphorbia heterophylla, pre-emergence, 31 g ai/ha Preemergence, read-out: Plant response rating, Poinsettia, Wild): 0%; pest or weed control at 125 g/ha ([6]; Euphorbia heterophylla, pre-emergence, 125 g ai/ha Preemergence, read-out: Plant response rating, Poinsettia, Wild): 90%; pest or weed control at 62 g/ha ([6]; Euphorbia heterophylla, pre-emergence, Preemergence, read-out: Plant response rating, Poinsettia, Wild): 50% |
